# Read-outs that look alike come from different tables or passages of the source.
# Molecular target: α-glucosidase (Saccharomyces cerevisiae, UniProt P53341)
# Assay: α-Glucosidase inhibitory assay (pNPG substrate, absorbance at 405 nm)
# Type: biochemical
# Details: for inhibition at 50 µM: read-out: Inhibition Rate (in vitro α-glucosidase inhibitory activity); for α-glucosidase inhibitory activity, in words: qualitative statement, tested at 50 μM
# Method: The α-glucosidase inhibitory activity was evaluated according to a previous method. In brief, α-glucosidase solution (0.025 U/mL, dissolved in 0.1 M phosphate-buffered saline (PBS) solution with a pH of 6.8), was mixed with 50 μM inhibitor and incubated at 37 °C for 10 min. pNPG solution (1 μM, dissolved in 0.1 M PBS solution) was added to the mixed solution and incubated at 37 °C for 40 min. Sodium carbonate (1 M) solution was added to terminate the reaction. […] The absorbance was recorded at 405 nm usin a microplate reader. The α-glucosidase inhibitory rate was calculated as follows:
# Inhibitory rate% = [(A0 − A1)/A0)] × 100%, where:
# A0 and A1 represent the absorbance of the blank group (containing enzyme, pNPG, PBS buffer, and DMSO), the sample group (containing enzyme, pNPG, PBS buffer, and samples), respectively. IC50 values were computed based on the Reed–Muench method.
# All data were analyzed and presented as mean values ± SD from three independent assays (n = 3). The IC50 values were determined by Graph Pad Prism version 5 (University of California, San Diego, CA, USA).
# [1] = at a concentration of 50 μM, means ± SD (n = 3)
# Chain of α-glucosidase (P53341 whole entry): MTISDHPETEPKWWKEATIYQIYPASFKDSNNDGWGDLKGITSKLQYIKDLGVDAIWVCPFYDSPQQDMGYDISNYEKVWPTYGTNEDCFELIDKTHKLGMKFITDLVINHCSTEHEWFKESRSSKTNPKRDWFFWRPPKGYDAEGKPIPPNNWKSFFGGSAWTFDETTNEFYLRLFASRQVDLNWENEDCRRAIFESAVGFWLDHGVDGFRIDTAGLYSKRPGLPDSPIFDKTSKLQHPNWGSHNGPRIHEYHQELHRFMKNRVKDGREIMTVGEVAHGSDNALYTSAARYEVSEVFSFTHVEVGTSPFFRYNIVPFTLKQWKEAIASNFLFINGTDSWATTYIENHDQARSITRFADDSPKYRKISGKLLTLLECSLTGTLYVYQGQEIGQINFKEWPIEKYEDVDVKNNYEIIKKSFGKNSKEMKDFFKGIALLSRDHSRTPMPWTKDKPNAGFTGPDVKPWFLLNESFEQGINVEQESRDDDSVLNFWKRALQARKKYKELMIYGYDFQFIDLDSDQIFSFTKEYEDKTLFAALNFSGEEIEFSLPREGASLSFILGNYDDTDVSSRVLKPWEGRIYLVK
Compound,inhibition at 50 µM [1] [%],"α-glucosidase inhibitory activity, in words",inhibition at 50 µM [%]
"CCCCC=CCCCCCCCCCC1(O)CC(O)CCC1O [Compound 1, (1S,2R,4S)-2-[10′(Z)-pentadecenyl]-cyclohexane-1,2,4-triol]",-8.1 ± 2.4,,
"CCCCC=CCCCCCCCCCCCC1(O)CC(O)C=CC1O [Compound 2, (1S,2R,4S)-2-[12′(Z)-heptadecenyl]-cyclohex-5-en-1,2,4-triol]",-12.4 ± 0.66,,
"CCCCC=CCCCCCCCCCCCCCC1(O)CC(O)C=CC1O [Compound 3, (1S,2R,4S)-2-[14′(Z)-nonadecenyl]-cyclohex-5-en-1,2,4-triol]",-13.6 ± 1.7,,
"CCCCC=CCCCCCCCCCC(O)CC1=CC(=O)CCC1O [Compound 4, (4R,2′R)-dihydroxy-3-[12′(Z)-heptadecenyl]-2-cyclohexenone]",11.1 ± 1.1,,
"CCCCC=CCCCCCCCCCC(O)CC1=CC(=O)CC(O)C1O [Compound 5, (4S,5S,2′R)-trihydroxy-3-[12′(Z)-heptadecenyl]-2-cyclohexenone]",-11.2 ± 0.94,,
"CCCC/C=C\CCCCCCCCCc1cc2cc(O)ccc2o1 [Compound 6, 2-[10′(Z)-pentadecenyl]-benzofuran-5-ol]",97.7 ± 0.19,,
"CCCC/C=C\CCCCCCCc1cc2cc(O)ccc2o1 [Compound 7, 2-[8′(Z)-tridecenyl]-benzofuran-5-ol]",96.7 ± 0.51,,
"CCCC/C=C\CCCCCCCCCCCc1cc2cc(O)ccc2o1 [Compound 8, choerosponol A]",98.7 ± 0.2,,
"Oc1cc(O)c2c(c1)O[C@H](c1ccc(O)c(O)c1)[C@@H](O)C2 [Compound 9, catechin]",61.1 ± 1.6,notable α-glucosidase inhibition,
"O=C1c2c(O)cc(O)cc2O[C@H](c2ccc(O)c(O)c2)[C@H]1O [Compound 10, dihydroquercetin]",,comparable α-glucosidase inhibitory,36.4 ± 0.72
"O=C1c2c(O)cc(O)cc2O[C@H](c2ccc(O)cc2)[C@H]1O [Compound 11, dihydrokaempferol]",43.8 ± 1.3,comparable α-glucosidase inhibitory,
"O=C1C[C@@H](c2ccc(O)c(O)c2)Oc2cc(O)cc(O)c21 [Compound 12, eriodictyol]",66.6 ± 0.92,,
"O=C1C[C@@H](c2ccc(O)cc2)Oc2cc(O)cc(O)c21 [Compound 13, naringenin]",,,65.1 ± 2
"C[C@@H]1O[C@@H](Oc2c(-c3ccc(O)c(O)c3)oc3cc(O)cc(O)c3c2=O)[C@H](O)[C@H](O)[C@H]1O [Compound 14, quercetin-3-O-α-L-rhamnoside]",,comparable α-glucosidase inhibitory,26.2 ± 1.3
"COc1cc([C@H]2c3cc(O)c(OC)cc3C[C@@H](CO)[C@@H]2CO)ccc1O [Compound 15, (+)-isolariciresinol]",16.6 ± 0.57,weak inhibitory activity,
"COc1cc([C@@H]2c3c(cc(OC)c(O)c3OC)C[C@H](CO)[C@H]2CO)cc(OC)c1O [Compound 16, (−)-lyoniresinol]",7.5 ± 1.4,weak inhibitory activity,
"COc1cc(C[C@@H](CO)[C@H](CO)Cc2ccc(O)c(OC)c2)ccc1O [Compound 17, (−)-secoisolariciresinol]",37.6 ± 0.12,weak inhibitory activity,
"COc1cc(C2OCC3C(c4cc(OC)c(O)c(OC)c4)OCC23)cc(OC)c1O (centres unmarked) [Compound 18, lirioresinol]",4.8 ± 0.38,weak inhibitory activity,

# Source: paper PMC11119685, “Undescribed Cyclohexene and Benzofuran Alkenyl Derivatives from Choerospondias axillaris, a Potential Hypoglycemic Fruit” (Foods, 2024)
